{
  "source": "patent US4117118A",
  "about": "“Organic compounds” (Sandoz Ltd., priority 1976, dated 1978)",
  "key": {"[1]": {"settings": "amorphous form", "text": "Behaviour in the thin layer chromatogram (substance spots made visible with iodine vapour): […]"}, "Aspergillus niger": {"tested_on": "Aspergillus niger", "settings": "standard tests"}},
  "data": [
    {"smiles": "C/C=C/C[C@@H](C)[C@@H](O)[C@H]1C(=O)N[C@@H](C)C(=O)N(C)CC(=O)N(C)[C@@H](CC(C)C)C(=O)N[C@@H](C(C)C)C(=O)N(C)[C@@H](CC(C)C)C(=O)N[C@@H](C)C(=O)N[C@H](C)C(=O)N(C)[C@@H](CC(C)C)C(=O)N(C)[C@@H](CC(C)C)C(=O)N(C)[C@@H](C(C)C)C(=O)N1C", "note": "[S 7481/F-2, Cyclosporin B]", "values": [
      {"measurement": "Solubility in most of the usual organic solvents", "setting": "[1]", "value": "readily soluble"},
      {"measurement": "Solubility in petroleum ether and water", "setting": "[1]", "value": "practically insoluble"},
      {"measurement": "Inhibition of the growth of Aspergillus niger", "setting": "Aspergillus niger", "value": "inhibition of the growth"}
    ]}
  ]
}
